Data on seven compounds can be found in patent publication US4980349A, “Sulphonamides derived from diarylmethanes, the processes for preparing them and pharmaceutical compositions containing them” (SANOFI, priority 1986, dated 1990).

Assay [1] has as its system rat hind foot kaolin-induced oedema. Briefly: Kaolin-induced arthritis test, first experiment (decrease in inflammation, foot volume). In kind it is in vivo. To be noted: 1 h before kaolin, Table IX, read-out: percentage decrease in the inflammation; for change in vivo at 25 mg/kg: 25 mg/kg oral; for change in vivo at 50 mg/kg: 50 mg/kg oral; for change in vivo at 100 mg/kg: 100 mg/kg oral. The method, then:
The […] of 0.05 ml of a sterile 10% strength suspension of kaolin into the metatarsal flexor sheath of the hind foot of a rat initially induces an oedematous reaction. An inflammatory arthritis then forms.
The early oedematous reaction appears from the first hour, and reaches its maximum between the fourth hour and the sixth hour. This is the manifestation of interest. The assessment of the volume of the foot enables the action of substances on the oedematous reaction to be studied. The measurements are carried out using a Giono and Chevilard plethysmometer.
The test products are administered orally (stomach tube) one hour before the injection of the kaolin.
The results are expressed as a percentage decrease in the inflammation in the treated animals compared with a control series of animals.
The batches are of 10 animals per dose and 10 control animals.
The figures shown represent the mean of 10 animals.

Assay [2] relates to foreign-body (sponge) granuloma in rats. Kind of assay: Experimental granuloma induced by foreign body, histological study. In kind it is in vivo, Wistar rats. To be noted: 8 days, Table XI. The method, then: This test consists in studying the subacute cellular phase which is developed in the 8 days which follow the implantation of a foreign body, a sponge of non-resorbable plastic, in the dorsal subcutaneous connective tissue in rats.
The granulomas formed are removed 8 days after the implantation; a histological study is carried out after fixing the tissue and staining sections with hematein/ eosin. The observation is more especially concerned with the cell population of the primary phase of the formation of the granulation tissue: the reticulohistocytic cells, lymphocytes and more especially the macrophages.
The animals used are Wistar rats weighing 120-140 g and of the same origin, maintained under the same conditions of housing throughout the treatment (8 days).
The compounds of the invention are administered orally, in a gum suspension, in the morning in a fasted state, using an oesophageal tube.
After 8 days of treatment, the rats are sacrificed by decapitation and the granulomas removed and prepared for the purpose of histological examination.
The experiment conditions are as follows:
The animals are distributed in batches of 10;
Each test product is administered at 2 doses, of 50 and 100 mg, respectively, to 2 batches of 10 animals;
Ketoprofen is used by way of reference product at the same 2 doses and under the same conditions; and
A batch of 10 control animals receives no treatment.
In this experiment, on the one hand a histological study of the granulomas is performed by sampling on day 8 (results recorded in Table XIa), and on the other hand a study of the weight of the granulomas was performed 10 days after the implantation (results recorded in Table XIb).

The subject of assay [3] is rat hind foot carragheenin-induced oedema. Kind of assay: Carragheenin-induced oedema test. In kind it is in vivo. To be noted: 3 h, first experiment, Table X, read-out: percentage inhibition of the inflammation; for change in vivo at 25 mg/kg: 25 mg/kg oral; for change in vivo at 50 mg/kg: 50 mg/kg oral; for change in vivo at 100 mg/kg: 100 mg/kg oral. On the procedure: In this test, 10 rats are used per test compound of the invention. Control batches of 10 rats also receive either the comparative compound (ketoprofen) or exclusively an NaCl solution.
The compounds of the invention are administered orally (stomach tube) one hour before the injection of carragheenin.
The carragheenin is suspended at a concentration of 1% in a 0.9% isotonic sodium chloride solution. The volume injected into the rat's foot is 0.20 ml.
The volume of the foot is measured before the injection and 3 hours later. The antagonistic effect of the products towards carragheenin is reflected in the inhibition of the volume of the oedema compared with control rats. The latter receive only isotonic NaCl solution under identical conditions.

For assay [4], the system named is pain threshold of brewer's yeast inflamed rat hind foot. Briefly: Randall and Sellitto's test (analgesic activity). In kind it is in vivo. As to conditions: first experiment, Table XII, read-out: percentage increase in the mean pain threshold; for change in vivo at 25 mg/kg: 25 mg/kg oral; for change in vivo at 50 mg/kg: 50 mg/kg oral; for change in vivo at 100 mg/kg: 100 mg/kg oral. The method, then: Inflammation increases the sensitivity to pain, in particular to pressure, and analgesics raise the threshold of the sensitivity.
The inflammation is obtained by injecting 0.1 ml of a 20% strength aqueous suspension of brewer's yeast under the plantar aponeurosis of one of the hind feet. […] The pain threshold is assessed in terms of the force necessary and sufficient to initiate a characteristic reaction of withdrawing the foot.
The sensitivity to pain of the inflamed foot reaches a plateau 4 hours after the injection of the brewer's yeast, and then remains stable until the 6th hour. The pain threshold of the inflamed foot in control rats weighing 140 g is reached for pressures of 50 to 60 g, whereas it is around 160 g for the intact foot.
The action of the substance administered orally to series of 10 rats is expressed in terms of the percentage increase in the mean pain threshold, compared with that measured in the rats of a control series of 10 animals which have not received a compound of the invention.
The test products are administered orally (stomach tube) one hour before the injection of brewer's yeast.
The comparative compound used is ketoprofen.

The subject of assay [5] is biosynthesis of leukotrienes B4 (LTB4), human polymorphonuclear leukocytes. Briefly: Biosynthesis of LTB4, isomers and oxidized metabolites in human polymorphonuclear leukocytes. In kind it is cell-based. As to conditions: Leukocyte, first experiment. The method, then: Polymorphonuclear leukocytes are isolated from human blood and used during the 6 hours following the withdrawal. The viability of the cells is checked by trypan blue exclusion.
5×10^6 cells are incubated for 10 minutes at 37° C. in the presence of the test product dissolved in DMSO, and are stimulated with ionophore A 23187 (Galbiochem, 10 μM) in PBS buffer at pH 7.4, Ca^2+ and Mg^2+ =1 μM.
100 ng of prostaglandin B2 (PGB2), dissolved in methanol, are added at the end of the reaction to act as an internal standard.
On centrifugation, the culture supernatant is withdrawn. The latter is retrieved under argon and stored at -80° C. until analysed by HPLC.
This analysis is carried out by injecting 250 μl onto a 5 μm ODS ultrasphere column (Beckmann), with a gradient of acetonitrile (20-80%) in water, at pH 7.4.
The amounts of the different products which absorb at 269 nm, i.e. leukotrienes B4 (LTB4), isomers of LTB4 and oxidized metabolites of LTB4, are estimated by comparison with the internal standard.
The test product is used at a concentration of 40 μM.
They are expressed either as a percentage inhibition, or as a percentage increase in the production of LTB4, isomers of LTB4 and oxidized metabolites of LTB4 (designated by +).
The experimental model is the same as that described in Section 2.1. Other products are tested by comparison with the compound of the invention no. 1574, used as a control.

The mark [6] stands for this setting: read-out: Isomers of LTB4: percentage inhibition (+ : percentage increase in the production).
Setting [7] is: read-out: LTB4: percentage inhibition (+ : percentage increase in the production).
Setting [8] is: read-out: Oxidized metabolites of LTB4: percentage inhibition (+ : percentage increase in the production).

Like-named read-outs stand apart in the source and are kept apart here.

Take `O=C(c1ccc(Cl)cc1)c1ccccc1S(=O)(=O)NCCCN1CCOCC1` [Compound 1410]: in assay [1], the change in vivo at 25 mg/kg was -18%, the change in vivo at 50 mg/kg was -32% and the change in vivo at 100 mg/kg was -57%. Also, the “histological study of the granuloma” value in assay [2] (both doses (50 and 100 mg/kg) oral) was “inflammatory reaction is attenuated”. Besides, in assay [3], the change in vivo at 25 mg/kg was -15%, the change in vivo at 50 mg/kg is -25% and the change in vivo at 100 mg/kg was -48%. Also, in assay [4], the change in vivo at 25 mg/kg worked out at 19%, the change in vivo at 50 mg/kg is 37% and the change in vivo at 100 mg/kg turned out to be 58%.
Regarding `O=C(O)CCCCCNS(=O)(=O)c1ccc(Cl)cc1C(=O)c1ccccc1Cl` [Compound 1570], the change in vivo at 25 mg/kg in assay [1] was -10%; in assay [3], -20%; in assay [4] it was 15%. The change in vivo at 50 mg/kg was -25% in assay [1], -29% in assay [3] and 25% in assay [4]. Moreover, the change in vivo at 100 mg/kg is -52% in assay [1], -40% in assay [3] and 53% in assay [4]. The “histological study of the granuloma” value in assay [2] (50 mg/kg oral) is reported as “anti-inflammatory activity is exhibited”; in assay [2] (100 mg/kg oral) it was “distinct”.
A word on the inhibition: it is the drop in the measured response relative to a control, in per cent. For the compound `O=C(O)CCCCCCCCCCCNS(=O)(=O)c1ccccc1C(=O)c1ccccc1` [Compound 1683], the values for the change in vivo at 25 mg/kg in assay [1], in assay [3] and in assay [4] were -25%, -25% and 15%, respectively. Moreover, the results for the change in vivo at 50 mg/kg in assay [1], in assay [3] and in assay [4] were -30%, -30% and 20%, respectively. Besides, the values for the change in vivo at 100 mg/kg in assay [1], in assay [3] and in assay [4] were -40%, -35% and 30%, respectively. Further, the inhibition at 40 µM is 15% in assay [5] (setting [6]), 15% in assay [5] (setting [7]) and 30% in assay [5] (setting [8]).
In the case of `O=C(O)CCCCCCCCCCNS(=O)(=O)c1cccc(C(=O)c2ccccc2)c1` [Compound 1684], the results for the change in vivo at 25 mg/kg in assay [1], in assay [3] and in assay [4] were -28%, -30% and 35%, respectively. Further, the values for the change in vivo at 50 mg/kg in assay [1], in assay [3] and in assay [4] were -42%, -45% and 45%, respectively. For the same compound, the change in vivo at 100 mg/kg was -45% in assay [1], -55% in assay [3] and 50% in assay [4]. For the same compound, the figures for the inhibition at 40 µM in assay [5] (setting [6]), in assay [5] (setting [7]) and in assay [5] (setting [8]) were 35%, 20% and 60%, respectively.
In the case of `O=C(O)CCCCCCCCCCNS(=O)(=O)c1ccc(C(=O)c2ccccc2)cc1` [Compound 1686], the results for the change in vivo at 25 mg/kg in assay [1], in assay [3] and in assay [4] were -50%, -50% and 35%, respectively. For the same compound, the change in vivo at 50 mg/kg was -50% in assay [1], -50% in assay [3] and 50% in assay [4]. The change in vivo at 100 mg/kg is -50% in assay [1], -55% in assay [3] and 50% in assay [4]. The inhibition at 40 µM in assay [5] (setting [6]) worked out at 5%; in assay [5] (setting [7]), 0%; in assay [5] (setting [8]) it was 25%.
Consider `O=C(O)CCCCCCCCCCCNS(=O)(=O)c1ccc(C(=O)c2ccccc2)cc1` [Compound 1687], for which the change in vivo at 25 mg/kg was -23% in assay [1], -25% in assay [3] and 25% in assay [4]. In addition, the results for the change in vivo at 50 mg/kg in assay [1], in assay [3] and in assay [4] were -28%, -30% and 35%, respectively. Also, the change in vivo at 100 mg/kg is -50% in assay [1], -48% in assay [3] and 50% in assay [4]. For the same compound, the inhibition at 40 µM in assay [5] (setting [6]) was 0%; in assay [5] (setting [7]) it was 16%; in assay [5] (setting [8]), -30%.
For the compound `O=C(O)CCCCCCCCCCNS(=O)(=O)c1cccc(C(=O)c2cc(S(=O)(=O)NCCCCCCCCCCC(=O)O)ccc2Cl)c1` [Compound 1688], the results for the change in vivo at 25 mg/kg in assay [1], in assay [3] and in assay [4] were -25%, -25% and 25%, respectively. Besides, the values for the change in vivo at 50 mg/kg in assay [1], in assay [3] and in assay [4] were -28%, -32% and 32%, respectively. The change in vivo at 100 mg/kg in assay [1] was -48%; in assay [3], -50%; in assay [4], 50%. The inhibition at 40 µM was -35% in assay [5] (setting [6]), 35% in assay [5] (setting [7]) and 20% in assay [5] (setting [8]).
